Data reported in patent publication US8283361B2 (AstraZeneca AB, priority 2008, dated 2012).
Structures can show the parent of a compound that is named as a salt.

Molecular target: S. aureus GyrB ATPase (Staphylococcus aureus, UniProt P0A0K8)
Test: biochemical
Conditions: compound at 1 μM; one value per test if tested more than once; read-out: % Inhibition of S. aureus GyrB ATPase
How it was run: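 IC50 values derive from 10-point titrations of compound (in DMSO). Phosphate formed from 250 μM ATP was quantified by acidic molybdate/malachite green after quenching.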

Sequence of S. aureus GyrB ATPase (P0A0K8 whole entry): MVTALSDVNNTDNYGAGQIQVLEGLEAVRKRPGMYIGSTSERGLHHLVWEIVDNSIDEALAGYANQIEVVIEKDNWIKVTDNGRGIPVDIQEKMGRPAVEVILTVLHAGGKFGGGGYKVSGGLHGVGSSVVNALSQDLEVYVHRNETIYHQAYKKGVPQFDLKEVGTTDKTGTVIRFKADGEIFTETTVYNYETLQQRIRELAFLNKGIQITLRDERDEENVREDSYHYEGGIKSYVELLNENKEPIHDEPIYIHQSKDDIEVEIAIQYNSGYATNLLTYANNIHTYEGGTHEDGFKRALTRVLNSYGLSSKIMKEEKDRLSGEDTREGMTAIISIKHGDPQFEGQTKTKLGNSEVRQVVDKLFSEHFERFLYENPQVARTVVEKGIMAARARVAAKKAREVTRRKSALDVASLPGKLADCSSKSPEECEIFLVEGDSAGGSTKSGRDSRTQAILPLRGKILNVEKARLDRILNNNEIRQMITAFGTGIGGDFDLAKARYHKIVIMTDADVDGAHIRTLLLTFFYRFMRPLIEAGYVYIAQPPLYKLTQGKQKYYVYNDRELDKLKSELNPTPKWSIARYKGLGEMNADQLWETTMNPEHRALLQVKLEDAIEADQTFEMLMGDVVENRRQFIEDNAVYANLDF
Sequence of S. aureus GyrB ATPase (P0AES4 whole entry, further chain): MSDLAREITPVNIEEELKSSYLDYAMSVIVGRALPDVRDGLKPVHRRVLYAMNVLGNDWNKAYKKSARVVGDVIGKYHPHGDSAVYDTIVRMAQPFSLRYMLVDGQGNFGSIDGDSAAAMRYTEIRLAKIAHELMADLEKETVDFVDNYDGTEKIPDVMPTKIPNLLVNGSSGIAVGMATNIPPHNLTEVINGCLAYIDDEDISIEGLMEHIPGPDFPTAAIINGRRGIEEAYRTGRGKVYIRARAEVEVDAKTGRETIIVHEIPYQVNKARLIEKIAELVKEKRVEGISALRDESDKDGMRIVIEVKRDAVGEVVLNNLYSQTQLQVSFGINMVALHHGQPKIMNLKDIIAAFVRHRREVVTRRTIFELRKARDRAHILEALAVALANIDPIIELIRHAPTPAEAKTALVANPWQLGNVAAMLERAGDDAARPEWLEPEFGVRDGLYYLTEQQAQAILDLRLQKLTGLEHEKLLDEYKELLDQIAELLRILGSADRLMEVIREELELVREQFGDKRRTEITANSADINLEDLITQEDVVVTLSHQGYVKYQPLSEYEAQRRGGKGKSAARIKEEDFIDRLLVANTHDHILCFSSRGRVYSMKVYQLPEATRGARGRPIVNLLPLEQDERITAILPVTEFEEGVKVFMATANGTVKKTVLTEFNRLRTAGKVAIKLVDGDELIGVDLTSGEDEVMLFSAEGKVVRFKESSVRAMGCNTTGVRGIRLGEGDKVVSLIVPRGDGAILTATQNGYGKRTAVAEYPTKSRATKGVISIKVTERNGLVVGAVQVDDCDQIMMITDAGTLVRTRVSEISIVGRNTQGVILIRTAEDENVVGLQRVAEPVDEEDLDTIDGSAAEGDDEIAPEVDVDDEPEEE

Point of comparison: `CCNC(=O)Nc1cc(-c2nc(C(F)(F)F)cs2)c(-c2ccc3c(c2)c(=O)c(C(=O)O)cn3[C@@H](CO)C(C)(C)C)cn1` [Example 76, (R)-6-(6-(3-ethylureido)-4-(4-(trifluoromethyl)thiazol-2-yl)pyridin-3-yl)-1-(1-hydroxy-3,3-dimethylbutan-2-yl)-4-oxo-1,4-dihydroquinoline-3-carboxylic acid], inhibition at 1 µM 110%. Against it:
- CCNC(=O)Nc1cc(-c2nc(C(F)(F)F)cs2)c(-c2ccc3c(=O)c(C(=O)NC)cn(Cc4ccccc4)c3c2)cn1 [Example 353, 1-Benzyl-7-{6-[(ethylcarbamoyl)amino]-4-[4-(trifluoromethyl)-1,3-thiazol-2-yl]pyridin-3-yl}-N-methyl-4-oxo-1,4-dihydroquinoline-3-carboxamide] — lower, 99%
- CCNC(=O)Nc1cc(-c2nc(C(F)(F)F)cs2)c(-c2ccc3c(c2)c(=O)c(C(=O)O)cn3[C@H](CO)CC(C)C)cn1 [Example 83, (S)-6-(6-(3-ethylureido)-4-(4-(trifluoromethyl)thiazol-2-yl)pyridin-3-yl)-1-(1-hydroxy-4-methylpentan-2-yl)-4-oxo-1,4-dihydroquinoline-3-carboxylic acid] — lower, 96%
- CC(C)NC(=O)Nc1cc(-c2nc(C(F)(F)F)cs2)c(-c2ccc3c(c2)c(=O)c(C(=O)O)cn3CCN(C)C)cn1 [Example 189, 1-(2-(dimethylamino)ethyl)-7-(6-(3-isopropylureido)-4-(4-(trifluoromethyl)thiazol-2-yl)pyridin-3-yl)-4-oxo-1,4-dihydroquinoline-3-carboxylate] — lower, 100%
- CCNC(=O)Nc1cc(-c2nc(C(F)(F)F)cs2)c(-c2ccc3c(=O)c(C(=O)NCCN(C)C)cn(CC)c3c2)cn1 [Example 332, N-[2-(dimethylamino)ethyl]-1-ethyl-7-{6-[(ethylcarbamoyl)amino]-4-[4-(trifluoromethyl)-1,3-thiazol-2-yl]pyridin-3-yl}-4-oxo-1,4-dihydroquinoline-3-carboxamide] — lower, 109%
- CCNC(=O)Nc1cc(-c2nc(C(F)(F)F)cs2)c(-c2ccc3c(=O)c(C(=O)NCCN(C)C)cn(CCO)c3c2)cn1 [Example 366, N-[2-(dimethylamino)ethyl]-7-{6-[(ethylcarbamoyl)amino]-4-[4-(trifluoromethyl)-1,3-thiazol-2-yl]pyridin-3-yl}-1-(2-hydroxyethyl)-4-oxo-1,4-dihydroquinoline-3-carboxamide] — lower, 99%
- CCCNC(=O)Nc1cc(-c2nc(C(F)(F)F)cs2)c(-c2ccc3c(c2)c(=O)c(C(=O)N2CCN(S(C)(=O)=O)CC2)cn3CCN(C)C)cn1 [Example 157, 1-(5-(1-(2-(dimethylamino)ethyl)-3-(4-(methylsulfonyl)piperazine-1-carbonyl)-4-oxo-1,4-dihydroquinolin-6-yl)-4-(4-(trifluoromethyl)thiazol-2-yl)pyridin-2-yl)-3-propylurea] — lower, 103%
- CCNC(=O)Nc1cc(-c2nc(C(F)(F)F)cs2)c(-c2ccc3c(=O)c(C(=O)NCCO)cn(CCO)c3c2)cn1 [Example 364, 7-{6-[(Ethylcarbamoyl)amino]-4-[4-(trifluoromethyl)-1,3-thiazol-2-yl]pyridin-3-yl}-N,1-bis(2-hydroxyethyl)-4-oxo-1,4-dihydroquinoline-3-carboxamide] — lower, 97%
- CCNC(=O)Nc1cc(-c2nc(C(F)(F)F)cs2)c(-c2ccc3c(=O)c(C(=O)NCCN(C)C)cn(Cc4ccccc4)c3c2)cn1 [Example 356, 1-Benzyl-N-[2-(dimethylamino)ethyl]-7-{6-[(ethylcarbamoyl)amino]-4-[4-(trifluoromethyl)-1,3-thiazol-2-yl]pyridin-3-yl}-4-oxo-1,4-dihydroquinoline-3-carboxamide] — lower, 85%
- CCCNC(=O)Nc1cc(-c2nc(C(F)(F)F)cs2)c(-c2ccc3c(c2)c(=O)c(C(=O)NCCO)cn3CCOC)cn1 [Example 207, N-(2-hydroxyethyl)-1-(2-methoxyethyl)-4-oxo-6-(6-(3-propylureido)-4-(4-(trifluoromethyl)thiazol-2-yl)pyridin-3-yl)-1,4-dihydroquinoline-3-carboxamide] — lower, 93%
- CCNC(=O)Nc1cc(-c2nc(C(F)(F)F)cs2)c(-c2ccc3c(c2)c(=O)c(C(=O)O)cn3CC2CCCCN2C)cn1 (stereo not drawn) [Example 127, 6-(6-(3-ethylureido)-4-(4-(trifluoromethyl)thiazol-2-yl)pyridin-3-yl)-1-((1-methylpiperidin-2-yl)methyl)-4-oxo-1,4-dihydroquinoline-3-carboxylic acid, formic acid salt] — higher, 117%
- CCNC(=O)Nc1cc(-c2nc(C(F)(F)F)cs2)c(-c2ccc3c(c2)c(=O)c(C(=O)O)cn3CCN(C)C)cn1 [Example 18, 1-(2-(dimethylamino)ethyl)-6-(6-(3-ethylureido)-4-(4-(trifluoromethyl)thiazol-2-yl)pyridin-3-yl)-4-oxo-1,4-dihydroquinoline-3-carboxylic acid] — lower, 98%
- COCCn1cc(C(=O)NCCO)c(=O)c2cc(-c3cnc(NC(=O)NC(C)C)cc3-c3nc(C(F)(F)F)cs3)ccc21 [Example 208, N-(2-hydroxyethyl)-6-(6-(3-isopropylureido)-4-(4-(trifluoromethyl)thiazol-2-yl)pyridin-3-yl)-1-(2-methoxyethyl)-4-oxo-1,4-dihydroquinoline-3-carboxamide] — lower, 97%
- CC(C)NC(=O)Nc1cc(-c2nc(C(F)(F)F)cs2)c(-c2ccc3c(c2)c(=O)c(C(=O)O)cn3CCC2CCOCC2)cn1 [Example 197, 7-(6-(3-isopropylureido)-4-(4-(trifluoromethyl)thiazol-2-yl)pyridin-3-yl)-4-oxo-1-(2-(tetrahydro-2H-pyran-4-yl)ethyl)-1,4-dihydroquinoline-3-carboxylate] — higher, 116%
- CCNC(=O)Nc1cc(-c2nc(C(F)(F)F)cs2)c(-c2ccc3c(c2)c(=O)c(C(=O)O)cn3[C@@H]2CCN(CC)C2)cn1 [Example 250, (R)-1-(1-ethylpyrrolidin-3-yl)-6-(6-(3-ethylureido)-4-(4-(trifluoromethyl)thiazol-2-yl)pyridin-3-yl)-4-oxo-1,4-dihydroquinoline-3-carboxylic acid] — higher, 112%
- CCNC(=O)Nc1cc(-c2nc(C(F)(F)F)cs2)c(-c2ccc3c(c2)c(=O)c(C(=O)O)cn3[C@@H](C)CO)cn1 [Example 71, (S)-6-(6-(3-ethylureido)-4-(4-(trifluoromethyl)thiazol-2-yl)pyridin-3-yl)-1-(1-hydroxypropan-2-yl)-4-oxo-1,4-dihydroquinoline-3-carboxylic acid] — lower, 107%
- CCCNC(=O)Nc1cc(-c2nc(C(F)(F)F)cs2)c(-c2ccc3c(c2)c(=O)c(C(=O)NCCO)cn3CCN(C)C)cn1 [Example 203, 1-(2-(dimethylamino)ethyl)-N-(2-hydroxyethyl)-4-oxo-6-(6-(3-propylureido)-4-(4-(trifluoromethyl)thiazol-2-yl)pyridin-3-yl)-1,4-dihydroquinoline-3-carboxamide] — lower, 87%
- CCNC(=O)Nc1cc(-c2nc(C(F)(F)F)cs2)c(-c2ccc3c(=O)c(C(=O)NCCN4CCN(C)CC4)cn(CCOC)c3c2)cn1 [Example 373, 7-{6-[(Ethylcarbamoyl)amino]-4-[4-(trifluoromethyl)-1,3-thiazol-2-yl]pyridin-3-yl}-1-(2-methoxyethyl)-N-[2-(4-methylpiperazin-1-yl)ethyl]-4-oxo-1,4-dihydroquinoline-3-carboxamide] — lower, 94%
- CCNC(=O)Nc1cc(-c2nc(C(F)(F)F)cs2)c(-c2ccc3c(c2)c(=O)c(C(=O)O)cn3[C@H]2CCCC[C@@H]2O)cn1 [Example 279, 6-(6-(3-ethylureido)-4-(4-(trifluoromethyl)thiazol-2-yl)pyridin-3-yl)-1-((1S,2S)-2-hydroxycyclohexyl)-4-oxo-1,4-dihydroquinoline-3-carboxylic acid] — lower, 103%
- CCNC(=O)Nc1cc(-c2nc(C(F)(F)F)cs2)c(-c2ccc3c(c2)c(=O)c(C(=O)O)cn3[C@H]2CCN(C)C2)cn1 [Example 312, (S)-6-(6-(3-ethylureido)-4-(4-(trifluoromethyl)thiazol-2-yl)pyridin-3-yl)-1-(1-methylpyrrolidin-3-yl)-4-oxo-1,4-dihydroquinoline-3-carboxylic acid] — lower, 105%
- CCNC(=O)Nc1cc(-c2nc(C(F)(F)F)cs2)c(-c2ccc3c(c2)c(=O)c(C(=O)O)cn3C2(CO)CCOCC2)cn1 [Example 122, 6-(6-(3-ethylureido)-4-(4-(trifluoromethyl)thiazol-2-yl)pyridin-3-yl)-1-(4-(hydroxymethyl)tetrahydro-2H-pyran-4-yl)-4-oxo-1,4-dihydroquinoline-3-carboxylic acid] — lower, 95%
- CCNC(=O)Nc1cc(-c2nc(C(F)(F)F)cs2)c(-c2ccc3c(=O)c(C(=O)NCCN4CCOCC4)cn(Cc4ccccc4)c3c2)cn1 [Example 357, 1-Benzyl-7-{6-[(ethylcarbamoyl)amino]-4-[4-(trifluoromethyl)-1,3-thiazol-2-yl]pyridin-3-yl}-N-[2-(morpholin-4-yl)ethyl]-4-oxo-1,4-dihydroquinoline-3-carboxamide] — lower, 87%
- CCNC(=O)Nc1cc(-c2nc(C(F)(F)F)cs2)c(-c2ccc3c(c2)c(=O)c(C(=O)O)cn3Cc2cn(C)cn2)cn1 [Example 125, 6-(6-(3-ethylureido)-4-(4-(trifluoromethyl)thiazol-2-yl)pyridin-3-yl)-1-((1-methyl-1H-imidazol-4-yl)methyl)-4-oxo-1,4-dihydroquinoline-3-carboxylic acid] — lower, 93%
- CCCNC(=O)Nc1cc(-c2nc(C(F)(F)F)cs2)c(-c2ccc3c(c2)c(=O)c(C(=O)O)cn3CCC2CCOCC2)cn1 [Example 200, 4-oxo-6-(6-(3-propylureido)-4-(4-(trifluoromethyl)thiazol-2-yl)pyridin-3-yl)-1-(2-(tetrahydro-2H-pyran-4-yl)ethyl)-1,4-dihydroquinoline-3-carboxylic acid] — higher, 111%
